Test results published in PubChem BioAssay (NCI).
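Cultured in 96-well plates, cells were exposed to test compound for 48 hours across five concentrations. The concentration for 50% growth inhibition is given as GI50. Definition used: TGI = concentration required for complete inhibition of growth.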

Columns and labels:
Assay in all cases: NCI-60 cell line screen, 48 h
CAKI-1 renal = test system: CAKI-1 renal
EKVX NSCLC = test system: EKVX NSCLC
IGROV1 ovarian = test system: IGROV1 ovarian
M14 melanoma = test system: M14 melanoma
NCI-H226 lung = test system: NCI-H226 lung
OVCAR-3 ovarian = test system: OVCAR-3 ovarian
OVCAR-4 ovarian = test system: OVCAR-4 ovarian
RPMI-8226 leukemia = test system: RPMI-8226 leukemia
RXF 393 renal = test system: RXF 393 renal
SN12C renal = test system: SN12C renal

SMILES | TGI (CAKI-1 renal) [µM] | TGI (EKVX NSCLC) [µM] | TGI (IGROV1 ovarian) [µM] | TGI (M14 melanoma) [µM] | TGI (NCI-H226 lung) [µM] | TGI (OVCAR-3 ovarian) [µM] | TGI (OVCAR-4 ovarian) [µM] | TGI (RPMI-8226 leukemia) [µM] | TGI (RXF 393 renal) [µM] | TGI (SN12C renal) [µM] | GI50 (EKVX NSCLC) [µM] | GI50 (CAKI-1 renal) [µM] | GI50 (IGROV1 ovarian) [µM] | GI50 (M14 melanoma) [µM] | GI50 (NCI-H226 lung) [µM] | GI50 (OVCAR-3 ovarian) [µM] | GI50 (OVCAR-4 ovarian) [µM] | GI50 (RPMI-8226 leukemia) [µM] | GI50 (RXF 393 renal) [µM] | GI50 (SN12C renal) [µM]
O=[N+]([O-])c1ccccc1N=Nc1c(O)[nH]c2ccccc12 | > 54.7 | 97.6 | > 39.9 | > 100 | > 59.1 | 31.7 | > 61.1 | > 100 | > 74.9 | > 61.6 | – | – | – | – | – | – | – | – | – | –
[Cu+2].[O-]c1ccc2ccccc2c1N=Nc1ccccc1.[O-]c1ccc2ccccc2c1N=Nc1ccccc1 | > 100 | > 100 | > 100 | > 100 | > 100 | > 100 | > 100 | > 100 | > 100 | > 100 | > 100 | – | – | – | – | – | – | – | – | –
COc1cc(-c2[nH]ccc2Cl)oc1C1=C2N=C3C=C2C(C(C)C)C1CCCCCCCC3 (centres undefined) | 5.27 | 3.51 | 2.71 | 1.51 | 3.51 | 2.05 | 2.48 | 5.34 | 2.42 | 3 | – | – | – | – | – | – | – | – | – | –
CCC[C@H](N[C@@H]1CCc2cc(F)cc(F)c2C1)C(=O)Nc1cn(C(C)(C)CNCC(C)(C)C)cn1 | 29 | > 100 | > 100 | 26.9 | 52.9 | 42.9 | > 100 | 34.8 | 21.1 | > 100 | 21 | 5.94 | 28.6 | 10.5 | 16.5 | 15.3 | 23.5 | 5.98 | 6.12 | 24.8
O=C(O)C1C2CC3C(OC(=O)C31)C2Br (centres undefined) | > 100 | > 100 | > 100 | > 100 | > 100 | > 100 | > 100 | > 100 | > 100 | > 100 | – | – | – | – | – | – | – | – | – | –
Cc1ccc(C)c(NC(=O)c2cc(-c3ccc([N+](=O)[O-])cc3)nc(N)n2)c1 | > 100 | > 100 | > 100 | > 100 | > 100 | > 100 | > 100 | > 100 | > 100 | > 100 | – | – | – | – | – | – | – | – | – | –
CC(C)=CCc1c(O)cc(/C=C/c2cc(O)c3c(c2)C[C@@H]2C(C)(C)[C@H](O)[C@H](O)C[C@@]2(C)O3)cc1O | > 5.6 | 4.49 | > 10 | 4.02 | > 10 | 5.11 | 4.08 | – | – | > 10 | 0.789 | 0.00267 | 1.25 | 0.548 | 1.99 | 1.5 | 0.831 | < 0.001 | < 0.001 | 2.81
